Test results reported in the NIST ThermoML archive (doi:10.1021/acs.jced.8b01135).
± gives the expanded uncertainty stated by the source.

Experiment: xn = mol fraction of the nth substance listed
Settings: 102 kPa, Liquid, x2 = 0; for speed of sound: Frequency=3 MHz, Single path-length method; for mass density: Vibrating tube method; for viscosity: Concentric cylinders viscometry

Row | Compound | speed of sound (288.15 K) | mass density (288.15 K) | viscosity (293.15 K) | speed of sound (293.15 K) | mass density (293.15 K) | speed of sound (298.15 K) | mass density (298.15 K) | viscosity (303.15 K) | speed of sound (303.15 K) | mass density (303.15 K) | viscosity (313.15 K) | speed of sound (313.15 K) | mass density (313.15 K) | viscosity (323.15 K) | speed of sound (323.15 K) | mass density (323.15 K) | viscosity (333.15 K) | speed of sound (333.15 K) | mass density (333.15 K)
1 | CCCCCCCCCCCC [dodecane] + CCCC1CCCCC1 | 1317.2 ± 0.8 m/s | 752.35 ± 0.71 kg/m3 | 1.49 ± 0.02 mPa·s | 1297.7 ± 0.8 m/s | 748.72 ± 0.71 kg/m3 | 1278.2 ± 0.8 m/s | 745.09 ± 0.71 kg/m3 | 1.27 ± 0.02 mPa·s | 1259 ± 0.8 m/s | 741.46 ± 0.71 kg/m3 | 1.08 ± 0.02 mPa·s | 1221.1 ± 0.8 m/s | 734.19 ± 0.71 kg/m3 | 0.934 ± 0.021 mPa·s | 1184 ± 0.8 m/s | 726.88 ± 0.71 kg/m3 | 0.813 ± 0.021 mPa·s | 1147.8 ± 0.8 m/s | 719.53 ± 0.71 kg/m3
2 | CCCCCCCCCCCC [dodecane] + CCCCCC1CCCCC1 | 1317.2 ± 0.8 m/s | 752.35 ± 0.71 kg/m3 | 1.49 ± 0.02 mPa·s | 1297.7 ± 0.8 m/s | 748.72 ± 0.71 kg/m3 | 1278.2 ± 0.8 m/s | 745.09 ± 0.71 kg/m3 | 1.27 ± 0.02 mPa·s | 1259 ± 0.8 m/s | 741.46 ± 0.71 kg/m3 | 1.08 ± 0.02 mPa·s | 1221.1 ± 0.8 m/s | 734.19 ± 0.71 kg/m3 | 0.934 ± 0.021 mPa·s | 1184 ± 0.8 m/s | 726.88 ± 0.71 kg/m3 | 0.813 ± 0.021 mPa·s | 1147.8 ± 0.8 m/s | 719.53 ± 0.71 kg/m3
3 | CCCCCCCCCCCC [dodecane] + CCCCCCC1CCCCC1 | 1317.2 ± 0.8 m/s | 752.35 ± 0.71 kg/m3 | 1.49 ± 0.02 mPa·s | 1297.7 ± 0.8 m/s | 748.72 ± 0.71 kg/m3 | 1278.2 ± 0.8 m/s | 745.09 ± 0.71 kg/m3 | 1.27 ± 0.02 mPa·s | 1259 ± 0.8 m/s | 741.46 ± 0.71 kg/m3 | 1.08 ± 0.02 mPa·s | 1221.1 ± 0.8 m/s | 734.19 ± 0.71 kg/m3 | 0.934 ± 0.021 mPa·s | 1184 ± 0.8 m/s | 726.88 ± 0.71 kg/m3 | 0.813 ± 0.021 mPa·s | 1147.8 ± 0.8 m/s | 719.53 ± 0.71 kg/m3
4 | CCCCCCCCCCCC [dodecane] + CCCCCCCC1CCCCC1 | 1317.2 ± 0.8 m/s | 752.35 ± 0.71 kg/m3 | 1.49 ± 0.02 mPa·s | 1297.7 ± 0.8 m/s | 748.72 ± 0.71 kg/m3 | 1278.2 ± 0.8 m/s | 745.09 ± 0.71 kg/m3 | 1.27 ± 0.02 mPa·s | 1259 ± 0.8 m/s | 741.46 ± 0.71 kg/m3 | 1.08 ± 0.02 mPa·s | 1221.1 ± 0.8 m/s | 734.19 ± 0.71 kg/m3 | 0.934 ± 0.021 mPa·s | 1184 ± 0.8 m/s | 726.88 ± 0.71 kg/m3 | 0.813 ± 0.021 mPa·s | 1147.8 ± 0.8 m/s | 719.53 ± 0.71 kg/m3
